# Laboratory results reported in patent US9604996B2 (Bayer Pharma Aktiengesellschaft, priority 2013, dated 2017).
# Biological target: T1, human adenosine A2b receptor (Homo sapiens, UniProt P29275)
# T1 construct: expressed in transfected cells; host or cells: CHO-K1 (Chinese Hamster Ovary) with CRE-luciferase reporter
# T1 sequence (P29275 1-332): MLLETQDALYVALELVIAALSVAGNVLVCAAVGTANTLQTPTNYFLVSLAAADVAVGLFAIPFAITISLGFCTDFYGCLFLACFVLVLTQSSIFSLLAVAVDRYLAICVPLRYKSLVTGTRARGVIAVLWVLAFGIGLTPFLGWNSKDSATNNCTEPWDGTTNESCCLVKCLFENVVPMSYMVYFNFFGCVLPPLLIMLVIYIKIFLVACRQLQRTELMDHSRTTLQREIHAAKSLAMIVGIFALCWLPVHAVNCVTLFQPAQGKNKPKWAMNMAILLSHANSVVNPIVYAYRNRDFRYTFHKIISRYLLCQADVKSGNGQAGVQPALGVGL
# Assay: Cellular reporter gene (CRE-luciferase) A2b receptor antagonist assay in recombinant CHO-K1 cells stimulated with NECA
# Format: cell-based
# Conditions: recombinant CHO-K1 cell line, co-incubation with EC50 concentration of NECA, 3 hours, in some cases means, rounded to two significant digits
# In short: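 CHO-K1 cells expressing human A2b receptor with a CRE-driven firefly luciferase reporter, co-incubated with test compound and NECA at its same-day EC50 concentration. Luminescence read 3 hours after NECA addition.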
row,SMILES,IC50
1,"CCn1c(=O)c2c(C)c(C(=O)N3CCC(O)C(O)C3)sc2n(CCC(F)(F)F)c1=O (racemic) [Example 116, 6-[(3,4-Dihydroxypiperidin-1-yl)carbonyl]-3-ethyl-5-methyl-1-(3,3,3-trifluoropropyl)thieno [2,3-d]pyrimidine-2,4(1H,3H)-dione]",200 nM
2,"CCn1c(=O)c2c(C)c(C(=O)N3CCC(O)CC3)sc2n(CCC(F)=C(F)F)c1=O [Example 136, 3-Ethyl-6-[(4-hydroxypiperidin-1-yl)carbonyl]-5-methyl-1-(3,4,4-trifluorobut-3-en-1-yl)thieno[2,3-d]pyrimidine-2,4(1H,3H)-dione]",310 nM
3,"CCn1c(=O)c2c(C)c(C(=O)N3CCC(O)C(O)C3)sc2n(CCC(F)(F)F)c1=O (single isomer, unassigned) [Example 121, 6-[(3,4-Dihydroxypiperidin-1-yl)carbonyl]-3-ethyl-5-methyl-1-(3,3,3-trifluoropropyl)thieno [2,3-d]pyrimidine-2,4(1H,3H)-dione]",180 nM
4,Cc1c(C(=O)N2CCC(O)CC2)sc2c1c(=O)n(CCc1cccnc1)c(=O)n2CCC(F)(F)F [Example 15],32 nM
5,"CCCn1c(=O)c2c(C(F)F)c(C(=O)N3CCC(O)CC3)sc2n(CCOC(F)(F)F)c1=O [Example 150, 5-(Difluoromethyl)-6-[(4-hydroxypiperidin-1-yl)carbonyl]-3-propyl-1-[2-(trifluoromethoxy)ethyl]thieno[2,3-d]pyrimidine-2,4(1H,3H)-dione]",9.8 nM
6,"Cc1c(C(=O)N2CCC(C)(O)CC2)sc2c1c(=O)n(CCc1ccccc1)c(=O)n2CCC(F)(F)F [Example 67, 6-[(4-Hydroxy-4-methylpiperidin-1-yl)carbonyl]-5-methyl-3-(2-phenylethyl)-1-(3,3,3-trifluoropropyl)thieno[2,3-d]pyrimidine-2,4(1H,3H)-dione]",13 nM
7,"CCn1c(=O)c2c(C(C)F)c(C(=O)N3CCNC(=O)C3)sc2n(CCC(F)(F)F)c1=O (single isomer, unassigned) [Example 148, 3-Ethyl-5-(1-fluoroethyl)-6-[(3-oxopiperazin-1-yl)carbonyl]-1-(3,3,3-trifluoropropyl)thieno[2,3-d]pyrimidine-2,4(1H,3H)-dione]",240 nM
8,"CC(C)Cn1c(=O)c2c(C(F)F)c(C(=O)N3CCC(O)CC3)sc2n(CCC(F)(F)F)c1=O [Example 139, 5-(Difluoromethyl)-6-[(4-hydroxypiperidin-1-yl)carbonyl]-3-isobutyl-1-(3,3,3-trifluoropropyl)thieno[2,3-d]pyrimidine-2,4(1H,3H)-dione]",39 nM
9,"CCn1c(=O)c2c(C)c(C(=O)N3CCC(O)C(O)C3)sc2n(CCC(F)(F)F)c1=O (single isomer, unassigned) [Example 117, 6-[(3,4-Dihydroxypiperidin-1-yl)carbonyl]-3-ethyl-5-methyl-1-(3,3,3-trifluoropropyl)thieno [2,3-d]pyrimidine-2,4(1H,3H)-dione]",140 nM
10,"Cc1c(C(=O)N2CCNC(=O)C2)sc2c1c(=O)n(CCc1cccnc1)c(=O)n2CCC=C(F)F [Example 34, 1-(4,4-Difluorobut-3-en-1-yl)-5-methyl-6-[(3-oxopiperazin-1-yl)carbonyl]-3-[2-(pyridin-3-yl)ethyl]thieno[2,3-d]pyrimidine-2,4(1H,3H)-dione]",120 nM
11,"O=C1CN(C(=O)c2sc3c(c2C(F)F)c(=O)n(CCc2ccccc2)c(=O)n3CCC(F)(F)F)CCN1 [Example 97, 5-(Difluoromethyl)-6-[(3-oxopiperazin-1-yl)carbonyl]-3-(2-phenylethyl)-1-(3,3,3-trifluoropropyl)thieno[2,3-d]pyrimidine-2,4(1H,3H)-dione]",7 nM
12,"CCn1c(=O)c2c(C)c(C(=O)N3CCC(O)C(O)C3)sc2n(CCC(F)(F)F)c1=O (single isomer, unassigned) [Example 120, 6-[(3,4-Dihydroxypiperidin-1-yl)carbonyl]-3-ethyl-5-methyl-1-(3,3,3-trifluoropropyl)thieno [2,3-d]pyrimidine-2,4(1H,3H)-dione]",130 nM
13,"CCn1c(=O)c2c(C)c(C(=O)N3CCC(O)CC3)sc2n(CCOC)c1=O [Example 20, 3-Ethyl-6-[(4-hydroxypiperidin-1-yl)carbonyl]-1-(2-methoxyethyl)-5-methylthieno[2,3-d]pyrimidine-2,4(1H,3H)-dione]",340 nM
14,"CCn1c(=O)c2c(C(C)F)c(C(=O)N3CCNC(=O)C3)sc2n(CCC(F)(F)F)c1=O (racemic) [Example 147, 3-Ethyl-5-(1-fluoroethyl)-6-[(3-oxopiperazin-1-yl)carbonyl]-1-(3,3,3-trifluoropropyl)thieno[2,3-d]pyrimidine-2,4(1H,3H)-dione]",100 nM
15,"O=C(c1sc2c(c1C(F)F)c(=O)n(CCc1ccccc1)c(=O)n2CCC(F)(F)F)N1CCC(O)(CO)CC1 [Example 86, 5-(Difluoromethyl)-6-{[4-hydroxy-4-(hydroxymethyl)piperidin-1-yl]carbonyl}-3-(2-phenylethyl)-1-(3,3,3-trifluoropropyl)thieno[2,3-d]pyrimidine-2,4(1H,3H)-dione]",12 nM
16,"Cc1c(C(=O)N2CCC(O)CC2)sc2c1c(=O)n(CC(O)c1ccccc1)c(=O)n2CCC(F)(F)F (single isomer, unassigned) [Example 101, 3-(2-Hydroxy-2-phenylethyl)-6-[(4-hydroxypiperidin-1-yl)carbonyl]-5-methyl-1-(3,3,3-trifluoropropyl)thieno[2,3-d]pyrimidine-2,4(1H,3H)-dione]",1200 nM
17,"CCCn1c(=O)c2c(C)c(C(=O)N3CCNC(=O)C3)sc2n(CCC(F)(F)F)c1=O [Example 95, 5-Methyl-6-[(3-oxopiperazin-1-yl)carbonyl]-3-propyl-1-(3,3,3-trifluoropropyl)thieno [2,3-d]pyrimidine-2,4(1H,3H)-dione]",140 nM
18,"Cc1c(C(=O)N2CCC(O)CC2)sc2c1c(=O)n(CCc1cnccn1)c(=O)n2CCC(F)(F)F [Example 17, 6-[(4-Hydroxypiperidin-1-yl)carbonyl]-5-methyl-3-[2-(pyrazin-2-yl)ethyl]-1-(3,3,3-trifluoropropyl)thieno[2,3-d]pyrimidine-2,4(1H,3H)-dione]",350 nM
19,"CCn1c(=O)c2c(C(C)F)c(C(=O)N3CCC(O)CC3)sc2n(CCC(F)(F)F)c1=O (racemic) [Example 145, 3-Ethyl-5-(1-fluoroethyl)-6-[(4-hydroxypiperidin-1-yl)carbonyl]-1-(3,3,3-trifluoropropyl)thieno[2,3-d]pyrimidine-2,4(1H,3H)-dione]",97 nM
20,"CCn1c(=O)c2c(C)c(C(=O)N3CCC(C)(O)CC3)sc2n(CCOC(F)(F)F)c1=O [Example 111, 3-Ethyl-6-[(4-hydroxy-4-methylpiperidin-1-yl)carbonyl]-5-methyl-1-[2-(trifluoromethoxy)ethyl]thieno[2,3-d]pyrimidine-2,4(1H,3H)-dione]",4 nM
21,"CCn1c(=O)c2c(C)c(C(=O)N3CCC(O)CC3)sc2n(CCSC(F)(F)F)c1=O [Example 57, 3-Ethyl-6-[(4-hydroxypiperidin-1-yl)carbonyl]-5-methyl-1-{2-[(trifluoromethyl)sulphanyl]ethyl}thieno[2,3-d]pyrimidine-2,4(1H,3H)-dione]",130 nM
22,"C#CCCn1c(=O)c2c(C)c(C(=O)N3CCC(O)CC3)sc2n(CCC(F)(F)F)c1=O [Example 61, 3-(But-3-yn-1-yl)-6-[(4-hydroxypiperidin-1-yl)carbonyl]-5-methyl-1-(3,3,3-trifluoropropyl)thieno[2,3-d]pyrimidine-2,4(1H,3H)-dione]",17 nM
